Measured values: US11382918B2, “Methods for treating Huntington's Disease” (PTC Therapeutics, Inc., priority 2017, dated 2022)
Counter-ions that a name gives are not always drawn.

Tested on: Endogenous Huntingtin Protein (HTT)
Assay: Endogenous Huntingtin Protein Assay (ELISA-based MSD electrochemiluminescence)
Type: cell-based
Details: Table 1
In short: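 HTT protein in lysates was measured by electrochemiluminescence on the MSD platform. Rabbit monoclonal 5656S followed by SULFO-TAG anti-rabbit antibody served for detection after overnight 4 °C capture with MAB2166 or the polyglutamine-directed MW1 antibody.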

Row | IC50 | Compound
1 | 1000 to 3000 nM | CCN1CCC(c2cn3c(=O)cc(-c4cc5c(C)nc(C)cn5c4)nc3c(C)n2)CC1 [compound 876, 2-(1,3-dimethylpyrrolo[1,2-a]pyrazin-7-yl)-7-(1-ethylpiperidin-4-yl)-9-methyl-4H-pyrazino[1,2-a]pyrimidin-4-one]
2 | 500 to 1000 nM | CCc1nc(C)cn2cc(-c3cc(=O)n4cc(N5C[C@@H](C)N[C@@H](C)C5)ccc4n3)cc12 [compound 748, 7-[(3R,5S)-3,5-dimethylpiperazin-1-yl]-2-(1-ethyl-3-methylpyrrolo[1,2-a]pyrazin-7-yl)-4H-pyrido[1,2-a]pyrimidin-4-one]
3 | 1000 to 3000 nM | Cc1cc2cc(-c3cc(=O)n4cc(N5CCNCC5)ccc4n3)ccn2n1 [compound 859, 2-(2-methylpyrazolo[1,5-a]pyridin-5-yl)-7-(piperazin-1-yl)-4H-pyrido[1,2-a]pyrimidin-4-one hydrochloride (1:2)]
4 | 3000 to 33000 nM | Cc1cn2nc(-c3cc(=O)n4cc(N5C[C@@H](C)N(C)[C@@H](C)C5)ccc4n3)cc2c(C)n1 [compound 259, 2-(4,6-dimethylpyrazolo[1,5-a]pyrazin-2-yl)-7-[(3R,5S)-3,4,5-trimethylpiperazin-1-yl]-4H-pyrido[1,2-a]pyrimidin-4-one]
5 | 100 to 500 nM | Cc1nc2c(F)cc(-c3cc(=O)n4cc(N5CCN[C@@H](C)C5)ccc4n3)cc2o1 [compound 306, 2-(4-fluoro-2-methyl-1,3-benzoxazol-6-yl)-7-[(3S)-3-methylpiperazin-1-yl]-4H-pyrido[1,2-a]pyrimidin-4-one]
6 | 3000 to 33000 nM | Cc1cn2nc(-c3cc(=O)n4cc(N5CCC(C)(N(C)C)CC5)ccc4n3)cc2c(C)n1 [compound 706, 7-[4-(dimethylamino)-4-methylpiperidin-1-yl]-2-(4,6-dimethylpyrazolo[1,5-a]pyrazin-2-yl)-4H-pyrido[1,2-a]pyrimidin-4-one]
7 | 3000 to 33000 nM | Cc1cn2cc(-c3ccc4nc(N5CCNCC5)cc(=O)n4c3)cc(F)c2n1 [compound 268, 7-(8-fluoro-2-methylimidazo[1,2-a]pyridin-6-yl)-2-(piperazin-1-yl)-4H-pyrido[1,2-a]pyrimidin-4-one]
8 | 3000 to 33000 nM | Cc1cn2nc(-c3cc(=O)n4cc(N5C[C@@H]6C[C@H]5CN6C)ccc4n3)cc2c(C)n1 [compound 400, 2-(4,6-dimethylpyrazolo[1,5-a]pyrazin-2-yl)-7-[(1S,4S)-5-methyl-2,5-diazabicyclo[2.2.1]hept-2-yl]-4H-pyrido[1,2-a]pyrimidin-4-one]
9 | 500 to 1000 nM | Cc1cc(C2CCNCC2)cn2c(=O)cc(-c3ccc4nn(C)cc4c3)nc12 [compound 721, 9-methyl-2-(2-methyl-2H-indazol-5-yl)-7-(piperidin-4-yl)-4H-pyrido[1,2-a]pyrimidin-4-one]
10 | 100 to 500 nM | CCN1CCC(c2cn3c(=O)cc(-c4cc5c(C)nc(C)cn5n4)nc3cn2)CC1 [compound 504, 2-(4,6-dimethylpyrazolo[1,5-a]pyrazin-2-yl)-7-(1-ethylpiperidin-4-yl)-4H-pyrazino[1,2-a]pyrimidin-4-one]
11 | 3000 to 33000 nM | CCN1CCC(c2cn3c(=O)cc(-c4ccc5nc(C)cn5c4)nc3cn2)CC1 [compound 580, 7-(1-ethylpiperidin-4-yl)-2-(2-methylimidazo[1,2-a]pyridin-6-yl)-4H-pyrazino[1,2-a]pyrimidin-4-one]
12 | 500 to 1000 nM | Cc1cn2cc(-c3cc(=O)n4cc(C5CCNCC5)ncc4n3)ccc2n1 [compound 585, 2-(2-methylimidazo[1,2-a]pyridin-6-yl)-7-(piperidin-4-yl)-4H-pyrazino[1,2-a]pyrimidin-4-one]

Row | Compound | IC50
13 | Cn1ncc2cc(-c3cc(=O)n4cc(C5=CCNCC5)ncc4n3)ccc21 [compound 505, 2-(1-methyl-1H-indazol-5-yl)-7-(1,2,3,6-tetrahydropyridin-4-yl)-4H-pyrazino[1,2-a]pyrimidin-4-one] | 3000 to 33000 nM
14 | CN1CC=C(c2ccc3nc(-c4ccc5nn(C)cc5c4)cc(=O)n3c2)CC1 [compound 476, 2-(2-methyl-2H-indazol-5-yl)-7-(1-methyl-1,2,3,6-tetrahydropyridin-4-yl)-4H-pyrido[1,2-a]pyrimidin-4-one] | 3000 to 33000 nM
15 | CCN1CC=C(c2cn3c(=O)cc(-c4ccc5nc(C)oc5c4)nc3cn2)CC1 [compound 423, 7-(1-ethyl-1,2,3,6-tetrahydropyridin-4-yl)-2-(2-methyl-1,3-benzoxazol-6-yl)-4H-pyrazino[1,2-a]pyrimidin-4-one] | 3000 to 33000 nM
16 | COc1cc(-c2ccnc(O)c2)ccc1-c1cc(=O)n2cc(C3=CCNCC3)ccc2n1 [compound 849, 2-[4-(2-hydroxypyridin-4-yl)-2-methoxyphenyl]-7-(1,2,3,6-tetrahydropyridin-4-yl)-4H-pyrido[1,2-a]pyrimidin-4-one hydrochloride (1:1)] | 3000 to 33000 nM
17 | O=c1cc(-c2ccc(-c3ccnc(O)c3)cc2O)nc2ccc(C3=CCNCC3)cn12 [compound 850, 2-[2-hydroxy-4-(2-hydroxypyridin-4-yl)phenyl]-7-(1,2,3,6-tetrahydropyridin-4-yl)-4H-pyrido[1,2-a]pyrimidin-4-one trifluoroacetate (1:1)] | 3000 to 33000 nM
18 | Cc1cn2cc(-c3cc(=O)n4cc(C5=CCNCC5)ncc4n3)cc2c(C)n1 [compound 413, 2-(1,3-dimethylpyrrolo[1,2-a]pyrazin-7-yl)-7-(1,2,3,6-tetrahydropyridin-4-yl)-4H-pyrazino[1,2-a]pyrimidin-4-one hydrochloride (1:2)] | < 100 nM
